Key:
Carbonic anhydrase 12 = Carbonic anhydrase 12 (Homo sapiens, UniProt O43570); experiment: Inhibition of human catalytic domain of carbonic anhydrase 12 preincubated for 15 mins by CO2 hydration stopped-flow assay
Homo sapiens [1] = species: Homo sapiens; experiment: Selectivity ratio of Ki for human carbonic anhydrase 1 to Ki for human carbonic anhydrase 9
Homo sapiens [2] = species: Homo sapiens; experiment: Selectivity ratio of Ki for human carbonic anhydrase 2 to Ki for human carbonic anhydrase 9
Carbonic anhydrase 1 = Carbonic anhydrase 1 (Homo sapiens, UniProt P00915); experiment: Inhibition of human recombinant carbonic anhydrase 1 preincubated for 15 mins by CO2 hydration stopped-flow assay
Sequence of Carbonic anhydrase 1 (P00915 whole entry): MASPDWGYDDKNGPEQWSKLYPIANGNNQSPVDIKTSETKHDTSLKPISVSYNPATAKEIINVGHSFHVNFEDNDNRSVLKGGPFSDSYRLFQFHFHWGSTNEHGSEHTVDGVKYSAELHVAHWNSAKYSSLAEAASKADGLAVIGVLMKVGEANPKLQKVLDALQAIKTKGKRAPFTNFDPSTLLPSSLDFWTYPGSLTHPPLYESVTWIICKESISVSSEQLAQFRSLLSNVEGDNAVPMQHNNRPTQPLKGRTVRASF

Carbonic anhydrase 2 = Carbonic anhydrase 2 (Homo sapiens, UniProt P00918); experiment: Inhibition of human recombinant carbonic anhydrase 2 preincubated for 15 mins by CO2 hydration stopped-flow assay
Carbonic anhydrase 9 = Carbonic anhydrase 9 (Homo sapiens, UniProt Q16790); experiment: Inhibition of human catalytic domain of carbonic anhydrase 9 preincubated for 15 mins by CO2 hydration stopped-flow assay

Sequence of Carbonic anhydrase 12 (O43570 whole entry, the tested form may be a part): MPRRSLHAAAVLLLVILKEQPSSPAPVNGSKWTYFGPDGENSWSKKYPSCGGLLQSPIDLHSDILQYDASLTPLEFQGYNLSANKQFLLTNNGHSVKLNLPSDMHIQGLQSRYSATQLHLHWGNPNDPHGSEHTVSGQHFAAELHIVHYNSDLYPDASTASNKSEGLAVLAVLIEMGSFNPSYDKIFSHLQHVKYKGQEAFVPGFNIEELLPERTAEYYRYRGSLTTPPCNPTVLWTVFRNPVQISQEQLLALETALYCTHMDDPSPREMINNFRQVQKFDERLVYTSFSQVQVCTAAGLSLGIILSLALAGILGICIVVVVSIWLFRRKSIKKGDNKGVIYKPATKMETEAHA

Row | SMILES | Ki (Carbonic anhydrase 12) [µM] | Ratio Ki (Homo sapiens [1]) | Ratio Ki (Homo sapiens [2]) | Ki (Carbonic anhydrase 1) [µM] | Ki (Carbonic anhydrase 2) [µM] | Ki (Carbonic anhydrase 9) [µM]
1 | NS(=O)(=O)c1ccc2c(c1)CCCN2 | 0.0807 | 3.8 | 1.6 | 0.192 | 0.0789 | 0.0505
2 | CC(F)CNc1ccc(S(N)(=O)=O)cc1 (configuration not stated) | 0.0739 | 4 | 1.3 | 0.175 | 0.0576 | 0.0435
3 | CC(F)(Cl)CNS(=O)(=O)c1ccc(N)cc1 (configuration not stated) | 1.52 | 2.1 | 0.6 | 5.18 | 1.4 | 2.47
4 | NS(=O)(=O)c1ccc(Nc2nc(Cl)nc(NCCO)n2)cc1 |  | 1460 | 23.1 |  |  | 
5 | Nc1ccc(S(=O)(=O)NCCC(F)Cl)cc1 (configuration not stated) | 1.95 | 2.7 | 0.3 | 6.76 | 0.799 | 2.47
6 | C=C(C)CNS(=O)(=O)c1ccc(N)cc1 | 1.28 | 2.1 | 1.4 | 7.14 | 4.71 | 3.46
7 | CC(F)(F)CNS(=O)(=O)c1ccc(N)cc1 | 0.0794 | 3.2 | 1.8 | 0.151 | 0.0853 | 0.047
8 | C=C(Cl)CNS(=O)(=O)c1ccc(N)cc1 | 0.096 | 62 | 57.5 | 5.63 | 5.18 | 0.09
9 | CC(=O)Nc1ccc(S(=O)(=O)NCC(C)F)cc1 (configuration not stated) | 1.1 | 1.1 | 1 | 4.8 | 4.6 | 4.4
10 | Cc1ccc(S(=O)(=O)Nc2ccccc2)cc1 |  |  |  | 0.419 | 0.395 | 
11 | C=CCNc1ccc(S(N)(=O)=O)cc1 | 0.966 | 1.5 | 1.7 | 2.08 | 2.34 | 1.4
12 | C=C(Cl)CN(CC(=C)Cl)S(=O)(=O)c1ccc(N)cc1 | 0.0798 | 92.8 | 68.2 | 6.8 | 5 | 0.0732
13 | Nc1ccc(S(=O)(=O)NCCC(F)F)cc1 | 1.14 | 2 | 2 | 4.22 | 4.23 | 2.12
14 | CC1CN(C)S(=O)(=O)c2ccc(N)cc21 (configuration not stated) | 0.298 | 4.7 | 3.2 | 0.637 | 0.431 | 0.136
15 | CCCNS(=O)(=O)c1ccc(N)cc1 | 1.84 | 2.5 | 1.7 | 5.14 | 3.46 | 2.08
16 | CC(C)(F)CNS(=O)(=O)c1ccc(N)cc1 | 0.0397 | 2.1 | 0.9 | 0.174 | 0.075 | 

Source: ChEMBL document CHEMBL2331479, “Superacid synthesis of halogen containing N-substituted-4-aminobenzene sulfonamides: new selective tumor-associated carbonic anhydrase inhibitors” (Bioorg Med Chem, 2013)
